Assay results from publication PMC3590450, “Analysis of substrate specificity and cyclin Y binding of PCTAIRE-1 kinase” (Cellular Signalling, 2012).
Values joined by “and” are separate entries in the source; they are usually repeats but may differ in a detail not shown here. Equal entries are not always repeated.

Tests used:
GST–PCTAIRE-1 [1] = target: T1, GST–PCTAIRE-1 (Homo sapiens, UniProt Q00536); test: In vitro phosphotransferase (kinase) assay of purified GST–PCTAIRE-1 on peptide substrates; assay type: biochemical; conditions: 1 μg GST–PCTAIRE-1, peptide 0-100 μM, mean ± SEM
T1 construct: made in house; host or cells: HEK293 cells, transient transfection with pEBG6P
Description: (§1) HEK293 cells were transfected with pEBG6P encoding GST-tagged human PCTAIRE-1 and harvested 36 h later as described above. GST–PCTAIRE-1 was isolated by batch-wise purification using Glutathione-Sepharose 4B. Briefly, lysates were incubated with equilibrated resin for 1 h at 4 °C, washed extensively with lysis buffer and eluted with 20 mM reduced glutathione in 50 mM Tris–HCl pH 8, 0.27 M sucrose, 0.1 mM EGTA and 1 mM DTT. Protein concentration was estimated by densitometry of Coomassie-stained gels using BSA standards. PCTAIRE-1 preparations were snap-frozen in N2(l) and stored at − 80 °C.
(§2) Fig. 1 Determination of PCTAIRE-1 optimal substrate motif. […] (B) GST–PCTAIRE-1 WT/KD was prepared as described in (A) and the optimal substrate motif determined by positional scanning peptide library screening (PSPL) as described in Materials and methods. (C) The activity of GST–PCTAIRE-1 (1 μg) and CDK2–cyclin A2 (10 ng) was assayed against a panel of CDK-tide derivatives (concentration fixed at 250 μM) based on the results of the degenerate library screen (modifications are underlined). Results are expressed as mean ± SEM and are representative of 3 independent experiments.
(§3) Purified rPCTAIRE-1, rCDK2–cyclin A2 or immune complexes isolated from cell/tissue lysates were assayed for phosphotransferase activity in a final assay volume of 50 μl containing 50 mM HEPES pH 7.5, 0.1 mM EGTA, 10 mM Mg(OAc)2, 0.1 mM [γ-^32P] ATP (300 CPM pmol^− 1), 1 mM DTT and the indicated concentrations of peptide substrate. Reactions were incubated at 30 °C and terminated by spotting onto P81 paper and immersion in 75 mM H3PO4. P81 filters were washed 3 × 10 min with H3PO4, rinsed with acetone, air-dried and incorporation of [γ-^32P] determined by Cherenkov counting. Results are expressed in U mg^− 1, where 1 U is defined as the incorporation of 1 nmol phosphate.min^− 1.
(§4) Fig. 2 Optimisation of PCTAIRE-1 substrate peptide. The in vitro phosphotransferase activity of 1 μg GST–PCTAIRE-1 (A) and 10 ng CDK2–cyclin A2 (B) was determined using a panel of CDK-tide derivatives (modifications from the parental peptide are underlined). Peptide conc. was varied over the range 0 > 100 μM and substrate saturation curves were fitted by non-linear regression to the Michaelis–Menten model. Fitted parameters [Km (μM) and Vmax (mU mg^− 1)] are listed in the adjoining table. (C) Based on the CDK-tide optimisation, derivatives of NSF-tide were synthesised (modifications underlined) and assayed for PCTAIRE-1 activity as described in (A + B). 100% GST–PCTAIRE-1 = 164 mU mg^− 1 and 100% CDK2–[…] = 940 U mg^− 1. (D) PCTAIRE-1 was immunoprecipitated from 2 mg of HEK293 lysate and kinase activity determined using 250 μM CDK-tide or the optimised substrate, PKS*PKARKKL (PCTAIRE-tide) as described in Materials and methods. Results are expressed as mean ± SEM and are representative of 3 independent experiments. […]

CDK2–cyclin A2 = target: T2, CDK2–cyclin A2 (Homo sapiens, UniProt P20248+P24941); test: In vitro phosphotransferase (kinase) assay of rCDK2–cyclin A2 on peptide substrates; assay type: biochemical; conditions: for CDK2-cyclin A2 Vmax: Fig. 2B table
T2 construct: made in house; host or cells: Escherichia coli
Description: PCTAIRE-1C-16 (sc-174) and PCTAIRE-1G6.1 (sc-53410) antibodies were from Santa Cruz Biotechnology. Cyclin Y antibody was from Proteintech. HA.11 (16B2) antibody was from Covance Research Products. The following antibodies were raised in sheep by the Division of Signal Transduction Therapy (DSTT, University of Dundee) against the indicated immunogens: PCTAIRE-1 (S552C, full length human 6×his-PCTAIRE-1), cyclin Y (S206D, full length human GST-cyclin Y). rCDK2–cyclin A2 was prepared by overexpression in Escherichia coli as previously described. Peptide substrates for kinase assays were synthesised by GL Biochem, and the peptide library was synthesised by Anaspec, Inc. [γ-^32P] ATP was from PerkinElmer. HRP-conjugated secondary antibodies were from Jackson Immunoresearch. Unless otherwise indicated all other reagents were from Sigma.
as §2, §3, §4

GST–PCTAIRE-1 [2] = test: In vitro phosphotransferase (kinase) assay of purified GST–PCTAIRE-1 on peptide substrates; assay type: biochemical, human; conditions: GST–PCTAIRE-1 from HEK293 vs CDK2–cyclin A2 from E. coli; data not shown
Description: as §1, §2, §3, §4

FLAG-WT–PCTAIRE-1 = FLAG-WT–PCTAIRE-1 (human, UniProt Q00536-1 1-496); test: cell-based or functional assay
[3] = Fig. 2A, CDK-tide derivatives, Michaelis–Menten fit, 0.1 mM [γ-32P]ATP, 30 °C, 1 U = 1 nmol phosphate min-1
[4] = Fig. 2A, CDK-tide derivatives, Michaelis–Menten non-linear regression, 0.1 mM [γ-32P]ATP, 30 °C, P81 paper, representative of 3 independent experiments
[5] = CDK-tide derivatives, 10 ng CDK2–cyclin A2, peptide 0-100 μM, Michaelis–Menten fit, mean ± SEM
[6] = Fig. 2B, CDK-tide derivatives, 10 ng CDK2–cyclin A2, peptide 0-100 μM, Michaelis–Menten fit, 0.1 mM [γ-32P]ATP, 30 °C, mean ± SEM, representative of 3 independent experiments

T1 sequence (Q00536 whole entry): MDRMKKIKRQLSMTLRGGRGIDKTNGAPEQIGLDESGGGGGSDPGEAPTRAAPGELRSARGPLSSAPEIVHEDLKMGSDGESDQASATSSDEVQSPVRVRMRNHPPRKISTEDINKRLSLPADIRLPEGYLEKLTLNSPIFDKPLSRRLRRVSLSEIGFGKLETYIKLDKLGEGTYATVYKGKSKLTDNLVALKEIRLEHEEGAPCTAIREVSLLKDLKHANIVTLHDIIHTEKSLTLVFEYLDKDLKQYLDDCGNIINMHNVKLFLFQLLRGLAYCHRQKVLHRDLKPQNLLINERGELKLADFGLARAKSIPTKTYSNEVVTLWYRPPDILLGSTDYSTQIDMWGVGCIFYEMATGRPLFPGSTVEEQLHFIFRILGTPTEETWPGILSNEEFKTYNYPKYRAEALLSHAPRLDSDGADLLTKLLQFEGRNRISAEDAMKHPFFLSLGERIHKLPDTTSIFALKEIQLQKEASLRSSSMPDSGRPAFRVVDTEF
FLAG-WT–PCTAIRE-1, sequence (Q00536 whole entry): as above

For “FIKICSPDKMIGRRR [peptide around Ser569 of human NSF with three extra C-terminal Arg]”, the Km (GST–PCTAIRE-1 [1]; Fig. 2C, NSF-tide derivatives, Michaelis–Menten fit, 0.1 mM [γ-32P]ATP, 30 °C) was 15 ± 6 µM and the “GST-PCTAIRE-1 Vmax” value (GST–PCTAIRE-1 [1]; Fig. 2C, NSF-tide derivatives, Michaelis–Menten fit) was 34 ± 4 mU.mg^-1.

“PKSPKARKKL [optimal PCTAIRE-1 substrate peptide …, modified from the parental CDK substrate peptide]” was tested, and the “GST-PCTAIRE-1 Vmax” value (GST–PCTAIRE-1 [1]; [3]) was 550 ± 19 mU.mg^-1, the “GST-PCTAIRE-1 Vmax” value (GST–PCTAIRE-1 [1]; Fig. 2A, CDK-tide derivatives, Michaelis–Menten fit, 0.1 mM [γ-32P]ATP, 30 °C, 1 U = 1 nmol phosphate min-1, listed as PKSPKARKKL) was ~ 550 mU.mg^-1 and the Km (GST–PCTAIRE-1 [1]; [4]) was 4 ± 1 µM. The Km (GST–PCTAIRE-1 [1]; Fig. 2A, CDK-tide derivatives, Michaelis–Menten non-linear regression, 0.1 mM [γ-32P]ATP, 30 °C, P81 paper, representative of 3 independent experiments, listed as PKSPKARKKL) was ~4 µM, the “CDK2-cyclin A2 Vmax” value (CDK2–cyclin A2; [5]) was “No fit” and the “CDK2-cyclin A2 Km” value (CDK2–cyclin A2; [6]) was “No fit”.

For “PKTPKKAKKL [generic CDK substrate peptide … derived from CDK phosphorylation sites of histone H1]”, the “GST-PCTAIRE-1 Vmax” value (GST–PCTAIRE-1 [1]; [3]) was 71 ± 7 mU.mg^-1, the Km (GST–PCTAIRE-1 [1]; [4]) was 23 ± 6 µM and the “Specific activity of PCTAIRE-1 towards the peptide, fold lower than that of CDK2–cyclin A2” value (GST–PCTAIRE-1 [2]) was > 2000 fold. For the same molecule, the “CDK2-cyclin A2 Vmax” value (CDK2–cyclin A2; [5]) was 1100 ± 54 U.mg^-1, the Km (CDK2–cyclin A2; [6]) was ~20 µM and 19 µM and the “CDK2–cyclin A2 Vmax as stated in text” value (CDK2–cyclin A2; running text on Fig. 2B, one range stated for TPKKR, SPKKA and TPKKA together) was 1100–1500 mU mg^− 1.

B1: HA-cyclin Y (natural protein, human, UniProt Q8ND76-1 1-341, looked up)
chain: MGNTTSCCVSSSPKLRRNAHSRLESYRPDTDLSREDTGCNLQHISDRENIDDLNMEFNPSDHPRASTIFLSKSQTDVREKRKSLFINHHPPGQIARKYSSCSTIFLDDSTVSQPNLKYTIKCVALAIYYHIKNRDPDGRMLLDIFDENLHPLSKSEVPPDYDKHNPEQKQIYRFVRTLFSAAQLTAECAIVTLVYLERLLTYAEIDICPANWKRIVLGAILLASKVWDDQAVWNVDYCQILKDITVEDMNELERQFLELLQFNINVPSSVYAKYYFDLRSLAEANNLSFPLEPLSRERAHKLEAISRLCEDKYKDLRRSARKRSASADNLTLPRWSPAIIS
For B1, the “PCTAIRE-1 kinase activity of the immunoprecipitates towards 50 μM PCTAIRE-tide, with co-expressed cyclin Y against without” value (FLAG-WT–PCTAIRE-1) was > 100 fold.
